The target of one experiment is human S1P1 (Homo sapiens (Human), UniProt P21453). Kind of experiment: S1P1 binding assay (33P-S1P radioligand competition, CHO cell membranes). How it is done: Membranes were prepared from CHO cells expressing human S1P1. Cells pellets (1×10^9 cells/pellet) were suspended in buffer containing 20 mM HEPES (4-(2-hydroxyethyl)-1-piperazineethanesulfonic acid), pH 7.5, 50 mM NaCl, 2 mM EDTA (Ethylenediaminetetraacetic acid) and Protease Inhibitor cocktail (Roche), and disrupted on ice using the Polytron homogenizer. The homogenate was centrifuged at 20,000 rpm (48,000 g) and the supernatant was discarded. The membrane pellets were resuspended in buffer containing 50 mM HEPES, pH 7.5, 100 mM NaCl, 1 mM MgCl2, 2 mM EDTA and stored in aliquots at −80° C. after protein concentration determination.
human S1P1, sequence (P21453 whole entry): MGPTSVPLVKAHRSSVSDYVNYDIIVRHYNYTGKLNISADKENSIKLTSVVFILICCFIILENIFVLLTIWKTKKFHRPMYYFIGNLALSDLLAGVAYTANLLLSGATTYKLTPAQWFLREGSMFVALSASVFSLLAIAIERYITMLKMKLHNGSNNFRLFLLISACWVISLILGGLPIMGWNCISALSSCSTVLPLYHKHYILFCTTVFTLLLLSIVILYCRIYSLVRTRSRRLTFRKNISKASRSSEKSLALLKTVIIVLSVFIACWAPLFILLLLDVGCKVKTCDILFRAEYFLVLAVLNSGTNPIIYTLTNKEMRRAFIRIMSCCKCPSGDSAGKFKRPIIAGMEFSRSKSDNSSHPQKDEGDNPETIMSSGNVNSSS
(In general: In a radioligand displacement assay an active substance lowers the binding of a labelled ligand.)

The target in experiment [1] is S1P3 (membranes prepared from EDG3-Gal5-bla HEK293T cells) (Homo sapiens (Human), UniProt Q99500). Kind of experiment: Receptor [35S] GTPγS binding assay (S1P3 GTPγS). The format is biochemical. The method, then:
(§1) Receptor [^35S] GTPγS Binding Assays: (S1P1 GTPγS/S1P3 GTPγS)
(§2) Compounds were loaded in a 384 Falcon v-bottom plate (0.5 μl/well in a 11 point, 3-fold dilution). Membranes prepared from S1P1/CHO cells or EDG3-Gal5-bla HEK293T cells (EDG3 equivalent S1P3) were added to the compound plate (40 μl/well, final protein 3 μg/well) with MULTIDROP®. [^35S] GTP (1250 Ci/mmol, Perkin Elmer) was diluted in assay buffer: 20 mM HEPES, pH7.5, 10 mM MgCl2, 150 mM NaCl, 1 mM EGTA (ethylene glycol tetraacetic acid), 1 mM DTT (Dithiothreitol), 10 μM GDP, 0.1% fatty acid free BSA, and 10 μg/ml Saponin to 0.4 nM. 40 μl of the [^35S] GTP solution was added to the compound plate with a final concentration of 0.2 nM. The reaction was kept at room temperature for 45 min. At the end of incubation, all the mixtures in the compound plate were transferred to Millipore 384-well FB filter plates via the VELOCITY11® Vprep liquid handler. The filter plate was washed with water 4 times by using the manifold Embla plate washer and dried at 60° C. for 45 min. MicroScint 20 scintillation fluid (30 μl) was added to each well for counting on the Packard TOPCOUNT®.
A smaller value for GTPγS S1P1 EC50 value indicated greater activity for the compound in the GTPγS S1P1 binding assay. A larger value for the GTPγS S1P3 EC50 value indicated less activity in the GTPγS S1P3 binding assay. […] Thus the compounds of the present invention may be used in treating, preventing, or curing various S1P1 receptor-related conditions while reducing or minimizing the side effects due to S1P3 activity. The selectivity of the compounds of the present invention indicate their potential use in treating, preventing, or curing autoimmune and inflammatory diseases such as multiple sclerosis, rheumatoid arthritis, inflammatory bowel disease, lupus, psoriasis, or vascular diseases, while reducing or minimizing possible side effects due to S1P3 activity. Other potential uses of the compounds of the present invention include minimizing or reducing rejection of transplanted organs, while reducing or minimizing side effects due to S1P3 activity.

The target of experiment [2] is S1P1 (membranes prepared from S1P1/CHO cells) (Homo sapiens (Human), UniProt P21453). Kind of experiment: Receptor [35S] GTPγS binding assay (S1P1 GTPγS). In kind it is biochemical. As to conditions: for activity as an agonist of S1P1: GTPγS S1P1 binding assay, result in words. The method, then:
as §1
as §2, with “TOPCOUNT®. […]” for “TOPCOUNT®.”
(In general: GTPγS is a poorly hydrolysed GTP analogue; its binding reports G protein activation.)

The next experiment addresses hS1P1/CHO cells (Homo sapiens (Human), UniProt P21453). As to the kind of experiment: hS1P1 ERK phosphorylation (S1P1 pERK). In kind it is cell-based. As to conditions: phosphate examples. How it is done:
hS1P1 ERK Phosphorylation (S1P1 pERK)
hS1P1/CHO cells were plated into BD Amine 384-well plates the day before the assay. On the day of the assay, growth medium was removed and replaced with serum-free medium (Ham's F-12 Invitrogen) and incubated for 2 hours. Test compounds pre-diluted in HBSS (Gibco)/20 mM HEPES (Gibco) were transferred to the cell plates and incubated for 7 minutes at 37° C. Cells were lysed in lysis buffer (Perkin Elmer) and phospho-ERK was measured using the SureFire pERK kit (Perkin Elmer) as described by the manufacturer. Data was plotted as percentage activation of the test compound relative to the efficacy of 10 μM S1P.

The mark [3] stands for this setting: 33P-S1P competition, membranes of CHO cells expressing human S1P1, read-out: S1P1 Binding IC50.
[4] abbreviates: [35S]GTPγS, EDG3-Gal5-bla HEK293T cell membranes, read-out: GTPγS S1P3 EC50.
Setting [5] is: [35S]GTPγS, S1P1/CHO cell membranes, read-out: GTPγS S1P1 EC50.
Where [6] appears, read: phosphate examples, read-out: S1P1 Binding.
[7] abbreviates: phosphate examples, read-out: S1P3 GTPγS.
Setting [8] is: phosphate examples, read-out: S1P1 GTPγS.

The results in this text go back to patent US9522888B2, “Substituted bicyclic compounds” (BRISTOL-MYERS SQUIBB COMPANY, priority 2014, dated 2016).

Where two headings read alike, the source gives them in different places. Bounds are passed on as bounds.

S1P1 (membranes prepared from S1P1/CHO cells), sequence (P21453 whole entry): as above
S1P3 (membranes prepared from EDG3-Gal5-bla HEK293T cells), sequence (Q99500 whole entry): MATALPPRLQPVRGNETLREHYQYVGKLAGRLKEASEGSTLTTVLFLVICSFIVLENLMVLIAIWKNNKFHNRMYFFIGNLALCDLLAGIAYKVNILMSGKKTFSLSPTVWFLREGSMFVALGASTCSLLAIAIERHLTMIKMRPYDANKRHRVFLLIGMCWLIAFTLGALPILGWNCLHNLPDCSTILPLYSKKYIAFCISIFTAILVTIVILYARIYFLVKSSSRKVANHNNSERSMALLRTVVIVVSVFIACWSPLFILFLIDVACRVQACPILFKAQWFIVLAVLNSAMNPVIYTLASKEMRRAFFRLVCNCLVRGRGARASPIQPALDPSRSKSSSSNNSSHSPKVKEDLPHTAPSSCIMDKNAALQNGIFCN
hS1P1/CHO cells, sequence (P21453 whole entry): as the sequence (P21453 whole entry) above

For the molecule `COCCCCCC1CCc2cc([C@H]3CC[C@](N)(COP(=O)(O)O)C3)ccc2C1` (single isomer, unassigned) [Example 689], the IC50 on human S1P1 (setting [3]) came out at 1.7 nM. Besides, in experiment [1] (GTPγS S1P1 versus GTPγS S1P3, result in words), the “selectivity over S1P3” value is “selective over S1P3”. The EC50 is above 2000 nM in experiment [1] (setting [4]); above 2000 nM in experiment [1] (membranes prepared from EDG3-Gal5-bla HEK293T cells, read-out: GTPγS S1P3 EC50); 5.7 nM in experiment [2] (setting [5]). Also, the “activity as an agonist of S1P1” value in experiment [2] is reported as “possessed activity as an agonist of S1P1”.
Take `COCCCCCC1CCc2cc([C@H]3CC[C@](N)(COP(=O)(O)O)C3)ccc2C1` (single isomer, unassigned) [Example 690]: on human S1P1 (setting [3]), the IC50 is 3 nM. For the same molecule, the EC50 was above 625 nM in experiment [1] (setting [4]) and 21.4 nM in experiment [2] (setting [5]).
Consider `COCCCCCC1CCc2cc([C@@H]3CC[C@](N)(COP(=O)(O)O)C3)ccc2C1` (single isomer, unassigned) [Example 692], for which the IC50 at human S1P1 (setting [3]) was found to be 2.3 nM. Moreover, the EC50 in experiment [1] (setting [4]) is above 625 nM.
Take `COc1cccc(CCC2CCc3cc([C@H]4CC[C@](N)(COP(=O)(O)O)C4)ccc3C2)c1` (single isomer, unassigned) [Example 693]: the EC50 in experiment [1] (setting [4]) is above 4160 nM.
For the molecule `COc1cccc(CCC2CCc3cc([C@H]4CC[C@](N)(COP(=O)(O)O)C4)ccc3C2)c1` (single isomer, unassigned) [Example 694], the EC50 in experiment [1] (setting [4]) was above 1250 nM; in experiment [2] (setting [5]), 38.6 nM.
`CCOCCCC1CCc2cc([C@H]3CC[C@](N)(COP(=O)(O)O)C3)ccc2C1` (single isomer, unassigned) [Example 695]: the EC50 in experiment [1] (setting [4]) was above 625 nM.
Take `CCOCCCC1CCc2cc([C@H]3CC[C@](N)(COP(=O)(O)O)C3)ccc2C1` (single isomer, unassigned) [Example 696]: the EC50 is above 1000 nM in experiment [1] (setting [4]) and 1.2 nM in experiment [2] (setting [5]).
For the molecule `COc1ccccc1CC[C@@H]1CCc2cc([C@H]3CC[C@](N)(COP(=O)(O)O)C3)ccc2C1` (single isomer, unassigned) [Example 697], the EC50 in experiment [1] (setting [4]) is above 1000 nM.
As to `COc1ccccc1CCC1CCc2cc(C3CC[C@](N)(COP(=O)(O)O)C3)ccc2C1` (single isomer, unassigned) [Example 698], the EC50 in experiment [1] (setting [4]) is above 625 nM.
Same read-out and setting: for `COc1cccc(OCC2CCc3cc([C@@H]4CC[C@](N)(COP(=O)(O)O)C4)ccc3C2)c1` (single isomer, unassigned) [Example 701] the value was above 1250 nM.
Same read-out and setting: the value for `COc1cccc(OCC2CCc3cc([C@@H]4CC[C@](N)(COP(=O)(O)O)C4)ccc3C2)c1` (single isomer, unassigned) [Example 702] was above 625 nM.
For `CC(C)=CCOCCO[C@@H]1CCc2cc(C3CCC(N)(COP(=O)(O)O)C3)ccc2C1` (single isomer, unassigned) [compound 580], the IC50 on human S1P1 (setting [6]) fell in the range of 10 to 100 nM. Also, the EC50 in experiment [1] (setting [7]) was above 625 nM; in experiment [2] (setting [8]), 10 to 100 nM.
`N[C@@]1(COP(=O)(O)O)CC[C@@H](c2ccc3c(c2)CC[C@H](OCCOC2CCCCC2)C3)C1` (single isomer, unassigned) [compound 585]: the EC50 was above 625 nM in experiment [1] (setting [7]) and 10 to 100 nM in experiment [2] (setting [8]).
Take `COc1ccccc1CCC1CCc2cc([C@H]3CC[C@](N)(COP(=O)(O)O)C3)ccc2C1` (stereo partly drawn) [Example 697]: the “activity as an agonist of S1P1” value in experiment [2] was “possessed activity as an agonist of S1P1”.
Regarding `COc1ccccc1CC[C@@H]1CCc2cc([C@@H]3CC[C@](N)(COP(=O)(O)O)C3)ccc2C1` [Example 699], the EC50 in experiment [1] (setting [4]) was above 625 nM.
In the case of `CCCCCCN1CCc2cc([C@H]3CC[C@](N)(COP(=O)(O)O)C3)ccc2C1=O` [compound 416], the IC50 at human S1P1 (setting [6]) fell in the range of 1000 to 10000 nM. The EC50 in experiment [1] (setting [7]) is above 625 nM.
As to `CCCCCCC1CCc2cc([C@H]3CC[C@](N)(COP(=O)(O)O)C3)ccc2O1` (stereo partly drawn) [compound 419], the EC50 in experiment [1] (setting [7]) was above 625 nM; on hS1P1/CHO cells, 10 to 100 nM.
`CCCCCCO[C@@H]1CCc2cc([C@@H]3CC[C@](N)(COP(=O)(O)O)C3)ccc2C1` [compound 435]: on human S1P1 (setting [6]), the IC50 was in the range of 10 to 100 nM. The EC50 in experiment [1] (setting [7]) was above 625 nM.
Regarding `N[C@@]1(COP(=O)(O)O)CC[C@@H](c2ccc3c(c2)CC[C@H](OCCOCc2ccccc2)C3)C1` [compound 581], the IC50 on human S1P1 (setting [6]) is below 10 nM. In addition, the EC50 in experiment [1] (setting [7]) was above 625 nM; in experiment [2] (setting [8]), below 10 nM.
Turning to `C=CCCOCCO[C@H]1CCc2cc([C@@H]3CC[C@@](N)(COP(=O)(O)O)C3)ccc2C1` [compound 584], the IC50 at human S1P1 (setting [6]) was below 10 nM. Also, the results for the EC50 in experiment [1] (setting [7]) and in experiment [2] (setting [8]) were above 625 nM and below 10 nM, respectively.
As to `CCCCCCC1CCc2nc([C@@H]3CC[C@@](N)(COP(=O)(O)O)C3)ccc2C1` (stereo partly drawn) [compound 612], the IC50 on human S1P1 (setting [6]) lay within 1000 to 10000 nM. For the same molecule, the EC50 in experiment [1] (setting [7]) was above 625 nM; in experiment [2] (setting [8]), 10 to 100 nM.
The like results for `N[C@]1(COP(=O)(O)O)CCC(c2ccc3c(c2)CN(CCCc2ccccc2)C3=O)C1` (stereo partly drawn) [compound 614] were, in that order, 1000 to 10000 nM, above 625 nM and 100 to 1000 nM.
As to `CC1(C)c2cc([C@@H]3CC[C@](N)(COP(=O)(O)O)C3)ccc2C(=O)N1CCCc1ccccc1` [compound 615], the IC50 on human S1P1 (setting [6]) lay within 100 to 1000 nM. Further, the EC50 in experiment [1] (setting [7]) is above 625 nM; in experiment [2] (setting [8]), 100 to 1000 nM.
Turning to `CCCCCC(=O)N1CCc2cc([C@H]3CC[C@@](N)(COP(=O)(O)O)C3)ccc2C1` [compound 617], the IC50 at human S1P1 (setting [6]) lay in the range of 100 to 1000 nM. In experiment [1] (setting [7]), the EC50 was above 625 nM.
With `CCCCCC[C@H]1CCc2cc([C@H]3CC[C@](N)(COP(=O)(O)O)C3)c(I)cc2C1` [compound 620], on human S1P1 (setting [6]), the IC50 lay in the range of 10 to 100 nM. Moreover, the results for the EC50 in experiment [1] (setting [7]) and in experiment [2] (setting [8]) were above 625 nM and below 10 nM, respectively.
On the same counts, the results for `CCCCCC[C@H]1CCc2cc([C@H]3CC[C@](N)(COP(=O)(O)O)C3)c(C)cc2C1` [compound 622] are below 10 nM, above 625 nM and below 10 nM.
The like results for `CCCCCC(=O)OC1CCc2cc([C@H]3CC[C@](N)(COP(=O)(O)O)C3)ccc2C1` (stereo partly drawn) [compound 623] were, in that order, below 10 nM, above 625 nM and below 10 nM.
On the same counts, the results for `CC(C)CO/N=C1/CCc2cc([C@H]3CC[C@](N)(COP(=O)(O)O)C3)ccc2C1` [compound 666] are 100 to 1000 nM, above 625 nM and 100 to 1000 nM.
